# Measurements reported in US10617678B2, “Treatment of restenosis using temsirolimus” (MERCATOR MEDSYSTEMS, INC., priority 2016, dated 2020).
# Entries after “also recorded” stand apart in the source; their conditions may differ.
# How the values were obtained:
# [1] = Pharmacokinetics: concentrations in harvested vessel tissues; assay type: in vivo, Yorkshire pigs; settings: post-dosing
# [2] = clinical observations, clinical pathology, post mortem tissue analysis; adventitial injection with Bullfrog device
# [3] = Pharmacokinetics: whole blood concentrations after adventitial injection; assay type: in vivo, Yorkshire pigs
# Protocol: Temsirolimus Preparation. The 25 mg/ml of Torisel® (temsirolimus) was diluted to 10 mg/ml with the supplied diluent and further diluted to 476 μg/ml in 0.9% sodium chloride solution. Then, the 476 μg/ml temsirolimus was mixed at 1:1 ratio with a contrast medium, Isovue-370, for a final temsirolimus concentration of 238 μg/ml. This temsirolimus preparation was subsequently administered in temsirolimus-treated group pigs. Similarly, a control solution was prepared by mixing 0.9% sodium chloride solution at 1:1 ratio with a contrast medium, Isovue-370. This control solution was administered in control group pigs.
# Temsirolimus-Treated Group.
# Pharmacokinetics. Whole blood samples were taken following each injection at 5 minutes, 20 minutes, 1 hour, and then 24 hours and upon sacrifice. Whole blood samples were analyzed for circulating temsirolimus and sirolimus concentrations. FIG. 14A and FIG. 14B show the levels of temsirolimus and sirolimus, respectively, circulating in whole blood at 1 hour, and 3, 7, and 28 days post-procedure. The mean temsirolimus level in whole blood was highest at 1 hour after the first injection (32.1±11.0 ng/mL) and decreased by an order of magnitude within 24 hours (2.4±1.0 ng/mL).
# [4] = system: cell proliferation in the vessel wall and adventitia; experiment: Ki-67 staining of cellular proliferation in injured femoral vessels; assay type: in vivo, Yorkshire pigs; settings: day 3, 7 and 28; 1.5 ml of 238 μg/ml perivascular injection
# [5] = system: femoral artery injured by angioplasty overstretch; experiment: Histopathology in porcine model of femoral artery injury; assay type: in vivo, Yorkshire pigs
# [6] = 1.5 ml of 238 μg/ml perivascular injection, injured femoral artery
compound,measurement,setting,value
CO[C@H]1C[C@@H]2CC[C@@H](C)[C@@](O)(O2)C(=O)C(=O)N2CCCC[C@H]2C(=O)O[C@H]([C@H](C)C[C@@H]2CC[C@@H](OC(=O)C(C)(CO)CO)[C@H](OC)C2)CC(=O)[C@H](C)/C=C(\C)[C@@H](O)[C@@H](OC)C(=O)[C@H](C)C[C@H](C)/C=C/C=C/C=C/1C [temsirolimus],time temsirolimus was measured in local vascular tissue,[1],up to 28 days
same,local or systemic toxicity,[2],no evidence of local or systemic toxicity
same,temsirolimus concentration in whole blood,[3]; 7 days post-procedure,below the limit of quantitation
same,temsirolimus concentration in whole blood,[3]; 28 days post-procedure,below the limit of quantitation
same,concentration at 1 h,"[3]; Yorkshire, pig, whole blood, 357 µg per artery (1.5 ml of 238 µg/ml), 1 hour after the first injection, read-out: mean temsirolimus level in whole blood",32.1 ± 11 ng/mL
same,concentration at 24 h,"[3]; Yorkshire, pig, whole blood, 357 µg per artery (1.5 ml of 238 µg/ml), 24 hours, read-out: mean temsirolimus level in whole blood",2.4 ± 1 ng/mL
same,temsirolimus concentration in whole blood,[3]; between 24 hours and 3 days,continued to decrease
same,cell proliferation throughout the vessel wall (Ki-67) compared to controls,[4],moderate to marked decrease; also recorded: reduced cellular proliferation
same,neointima formation,[5]; [6],no or minimal to mild and non-stenosing neointima formation
same,re-endothelialization,[5]; [6],complete or near complete re-endothelialization
same,healing of treated vessels (histopathology),[5]; 1.5 ml of 238 μg/ml temsirolimus into adventitia/perivascular tissue of each injured femoral artery,fully or nearly fully healed as early as day 7
